Where a SMILES comes first, the peptide text is derived from it.

Common to all, as to format: cell-based, human
Series [1] has as its system KG1a cells. Description: Annexin V/propidium iodide in vitro apoptosis (cytotoxicity) assay. As to conditions: 72 h. On the procedure:
(§1) The acute myeloid leukaemia (AML) KG1a cell line was maintained in RPMI medium (Invitrogen) supplemented with 100 units/ml penicillin, 100 μg/ml streptomycin and 20% foetal calf serum. The multiple myeloma (MM) cell line H929, the two breast cancer cell lines (MCF7 and MDA-MB-231), the MEC-1 cells and the primary chronic lymphocytic leukaemia cells were maintained in RPMI medium supplemented with 100 units/ml penicillin, 100 μg/ml streptomycin and 10% foetal calf serum. The media used contained acetylcholine but after the initial set of experiments an additional 100 μM of acetylcholine was added to the culture media. Cells were subsequently aliquoted (10^6 cells/ml) into 24-well plates and were incubated at 37° C. in a humidified 5% carbon dioxide atmosphere for 72 h in the presence of the peptides (T15, T30, NBP-14 and the combination of T30+NBP-14) at concentrations between 0.1 nM and 1 μM. In addition, control cultures were carried out to which no peptide was added. Cells were subsequently harvested by centrifugation and were analysed by flow cytometry using the Annexin V assay or were counted using a Vi-Cell XR cell viability counter (Beckman Coulter).
(§2) Cultured cells were harvested by centrifugation and then resuspended in 195 of calcium-rich buffer. Subsequently, 5 μl of Annexin V (eBiosciences) was added to the cell suspension and cells were incubated in the dark for 10 mins prior to washing. Cells were finally resuspended in 190 μl of calcium-rich buffer together with 10 μl of propidium iodide. Apoptosis was assessed by dual-colour immunofluorescent flow cytometry using an Accuri C6 flow cytometer and data were analysed using CFlow software (BD Biosciences).
(§3) The in vitro drug sensitivity was measured using the Annexin V/propidium iodide assay. Comparison of the effects of each peptide alone or in combination in the various cell lines and primary cells are shown below.

Series [2] deals with JJN3 cells. Description: In vitro proliferation. Particulars: JJN3, concentrations of peptide >0.1 μM.
The subject of series [3] is primary CLL cells. In words: Annexin V/propidium iodide in vitro apoptosis (cytotoxicity) assay. Particulars: for apoptosis (cytotoxic effect): primary CLL cells derived from patients, 72 h. On the procedure: as §1, §2, §3
The subject of series [4] is H929 cells. The series is described as above. Particulars: H929, 72 h. On the procedure: as §1, §2, §3
In series [5] the test system is MDA-MB-231 cells. Described as above. As to conditions: MDA-MB-231, 72 h, peptides 0.1 nM to 1 μM. On the procedure: as §1, §2, §3
Series [6] deals with MEC-1 cells. Described as above. As to conditions: MEC-1, 72 h. On the procedure: as §1, §2, §3
The test system of series [7] is MCF7 cells. The series is described as above. Particulars: MCF7, 72 h, peptides 0.1 nM to 1 μM. On the procedure: as §1, §2, §3
The subject of series [8] is primary CLL cells. In words: Transwell migration assay. Particulars: for migration: primary CLL cells from 10 patients, 1 μM peptide, 24 h transwell. The protocol: (§4) The acute myeloid leukaemia (AML) KG1a cell line was maintained in RPMI medium (Invitrogen) supplemented with 100 units/ml penicillin, 100 μg/ml streptomycin and 5% foetal calf serum. The multiple myeloma (MM) cell line JJN3, the two breast cancer cell lines (MCF7 and MDA-MB-231), the primary chronic lymphocytic leukaemia cells and normal B-lymphocytes were maintained in RPMI medium supplemented with 100 units/ml penicillin, 100 μg/ml streptomycin and 5% foetal calf serum. In addition, 100 μM of acetylcholine was added to the culture media to ensure that the availability of acetylcholine was not a limiting factor in these experiments.
(§5) In vitro migration assays were performed by using 6.0 μm pore size transwell migration plates (Costar, Corning, N.Y.). A total of 10^6 CLL cells in 500 μl of RPMI media were added to the upper chamber of the transwell insert. 100 ng/ml of CXCL12 was added to the baso-lateral chamber for all the cell types tested apart from KG1a cells. […] Instead, media containing 10% foetal calf serum was added to the baso-lateral chamber in these experiments. The plates were incubated for 24 h at 37° C. in 5% CO2 in the presence of the peptides (T15, T30, NBP-14 and the combination of T30+NBP-14) at concentrations between 0.1 nM and 10 μM. In addition, control cultures were carried out to which no peptide was added. Cells were subsequently harvested by centrifugation and were analysed by flow cytometry using an Accuri C6 flow cytometer (BD). None of the conditions tested induced significant cell death in the cultures. Migration of CLL cells was determined by counting cells that migrated to the lower (baso-lateral) chamber of the transwell plate and then expressed as a percentage of the total number of cells initially added to the upper (apical) chamber.

The subject of series [9] is MDA-MB-231 cells. In words: Transwell migration assay. Particulars: for migration: MDA-MB-231, 1 μM peptide, 24 h transwell, vs no peptide control. The protocol:
as §4, §5

Another series has as its system normal B-lymphocytes. Description: Transwell migration assay. As to conditions: normal B-lymphocytes from healthy volunteers, 1 μM peptide, 24 h transwell. The protocol: as §4, §5
For series [10], the system named is JJN3 cells. In words: Transwell migration assay. Particulars: for migration: JJN3, 1 μM peptide, 24 h transwell, vs no peptide control. On the procedure: as §4, §5
Series [11] has as its system KG1a cells. In words: Transwell migration assay. As to conditions: for migration: 1 μM peptide, 24 h transwell, vs no peptide control. On the procedure:
as §4, §5

In series [12] the test system is MCF7 cells. Description: Transwell migration assay. As to conditions: for migration: MCF7, 1 μM peptide, 24 h transwell, vs no peptide control. The protocol: as §4, §5
Series [13] concerns H929 cells. In words: Transwell migration assay. Particulars: H929, 1 μM NBP-14 vs baseline control. On the procedure: as §5
Series [14] deals with MEC-1 cells. Description: Transwell migration assay. As to conditions: MEC-1, 1 μM NBP-14 vs baseline control. On the procedure:
as §5

Series [15] has as its system H929 cells. In words: In vitro proliferation (Vi-Cell XR viable cell count). Particulars: H929, concentrations above 0.1 μM. On the procedure:
as §1
(§6) Cultured cells were harvested by centrifugation and were then counted using a Vi-Cell XR cell viability counter. The number of viable cells in each culture was then expressed as a percentage of the viable cells in the control cultures (no peptide).

Series [16] has as its system MDA-MB-231 cells. Described as above. On the procedure: as §1, §6
Series [17] relates to MEC-1 cells. Described as above. As to conditions: MEC-1, concentrations above 0.1 μM. The protocol:
as §1, §6

The subject of series [18] is KG1a cells. Described as above. Particulars: concentrations above 0.1 μM. On the procedure: as §1, §6
The subject of series [19] is MCF7 cells. The description is as above. Particulars: MCF7, concentrations above 0.1 μM. The protocol:
as §1, §6

The test system of series [20] is normal B- and T-lymphocytes. Description: Annexin V/propidium iodide apoptosis assay in normal cells. Particulars: B- and T-lymphocytes from normal healthy volunteers. The protocol: as §2, §3
In order to assess the effects of the acetylcholinesterase-derived peptides on normal (non-malignant) cells, B- and T-lymphocytes were isolated from normal healthy volunteers (n=3).

Consider `Nc1ccn([C@@H]2O[C@H](CO)[C@@H](O)[C@@H]2O)c(=O)n1` [Ara-C, reference compound], for which the “apoptosis (cytotoxic effect)” value in the series on KG1a cells [1] is “dose-response at concentrations above 0.1 μM”.
For the compound `CSCC[C@@H]1NC(=O)[C@H](Cc2ccc(O)cc2)NC(=O)[C@H](CO)NC(=O)[C@H](CO)NC(=O)[C@H](Cc2c[nH]c3ccccc23)NC(=O)[C@H](CCCNC(=N)N)NC(=O)[C@H](Cc2c[nH]cn2)NC(=O)[C@H](Cc2ccccc2)NC(=O)[C@H](CCC(=O)O)NC(=O)[C@H](C)NC(=O)[C@H](CCCCN)NC(=O)[C@H](Cc2c[nH]c3ccccc23)NC(=O)[C@H](Cc2c[nH]cn2)NC(=O)[C@H](C(C)C)NC1=O` [NBP-14] (cyclo(AEFHRWSSYMVHWK)), the proliferation entry is reported as “anti-proliferative activity” in the series with JJN3 cells [2]; “reduced proliferation” in the series with H929 cells [15]; “significant reduction in proliferation” with MDA-MB-231 cells [16] (MDA-MB-231, peptide concentrations above 0.1 μM, compared with T15 control peptide); “reduced proliferation” in the series with MEC-1 cells [17]; “reduced proliferation” in the series on KG1a cells [18]; “not as significant” in the series with MCF7 cells [19]. Moreover, the “apoptosis (cytotoxic effect)” value in the series on primary CLL cells [3] was “evidence of dose-response at concentrations above 0.1 μM”; in the series with H929 cells [4], “modest apoptotic effects”; in the series with MDA-MB-231 cells [5], “modest apoptotic effects”; in the series on MEC-1 cells [6] it was “modest apoptotic effects”; in the series with KG1a cells [1] it was “modest apoptotic effects”; in the series on MCF7 cells [7] it was “relatively increased sensitivity”. Also, the apoptosis in the series with primary CLL cells [3] (primary CLL cells, at 1 μM) was roughly 20%. Further, the migration entry in the series on primary CLL cells [8] was “significant reduction in migration”; in the series with MDA-MB-231 cells [9], “significantly inhibited”; in the series with normal B-lymphocytes, “significant reduction”; with JJN3 cells [10] it was “significant inhibited”; in the series on KG1a cells [11], “significantly inhibited”; in the series with MCF7 cells [12], “little effect”. Also, the migration entry with H929 cells [13] and with MEC-1 cells [14] was “significant reduction in cell migration” throughout. The “sensitivity of primary CLL cells to anti-migratory effect compared with normal B-cells” value in the series with primary CLL cells [8] (primary CLL cells vs normal B-cells, 24 h) is listed as “significantly more sensitive”. The “migration (dose-response)” value was “significant decrease in migration” in the series on MDA-MB-231 cells [9] (MDA-MB-231, NBP-14 at concentrations ≥1 μM); “significant decrease in migration” in the series on JJN3 cells [10] (JJN3, NBP-14 at concentrations ≥1 μM); “significant decrease in migration” in the series on KG1a cells [11] (NBP-14 at concentrations ≥1 μM); “failed to show a significant reduction in migration” with MCF7 cells [12] (MCF7, NBP-14 at concentrations ≥1 μM). In addition, in the series with JJN3 cells [10] (JJN3, 1 μM, 24 h), the “inhibition of migration compared with T30” value is on record as “significantly greater extent”. Also, the “toxicity in normal (non-malignant) cells” value in series [20] was “lack of toxicity”.
Regarding `Nc1nc(F)nc2c1ncn2[C@@H]1O[C@H](CO)[C@@H](O)[C@@H]1O` [fludarabine, reference compound], the “apoptosis (cytotoxic effect)” value with H929 cells [4] and with MEC-1 cells [6] was “induced a dose-response” throughout.
Rituximab [reference compound]: in the series on primary CLL cells [3], the “apoptosis (cytotoxic effect)” value is listed as “more pronounced dose-response”.
As for “T15 (NQFDHYSKQDRCSDL; listed as Homo sapiens) [reference compound]”, the migration result in the series with primary CLL cells [8] is “did not significantly altered”; in the series with normal B-lymphocytes, “no significant effect”; in the series on JJN3 cells [10], “no significant effect”; in the series with KG1a cells [11] it was “did not alter”; in the series with MCF7 cells [12], “Neither the T15 nor the T30 peptide showed a significant effect”.
“T30 (KAEFHRWSSYMVHWKNQFDHYSKQDRCSDL; listed as Homo sapiens) [reference compound]”: the migration entry is on record as “did not significantly altered” in the series with primary CLL cells [8]; “significantly inhibited” in the series on MDA-MB-231 cells [9]; “no significant effect” in the series on normal B-lymphocytes; “significant inhibited” in the series with JJN3 cells [10]; “did not alter” in the series with KG1a cells [11]; “Neither the T15 nor the T30 peptide showed a significant effect” in the series on MCF7 cells [12]. Also, the “inhibition of migration compared with NBP-14” value in the series on MDA-MB-231 cells [9] (MDA-MB-231, 1 μM, 24 h) is listed as “significantly less effective”. In addition, in the series on MDA-MB-231 cells [16] (MDA-MB-231, sub-nanomolar concentrations), the proliferation result was “increased proliferation”.
